Data reported in patent US8658183B2, “Antimicrobial parenteral formulation” (Taigen Biotechnology Company, Ltd., priority 2007, dated 2014).
Values after ≈ are worked out from the molar mass of the structure shown. Like-named read-outs stand apart in the source and are kept apart here.

Tests used:
S. pneumoniae Stp 6301 = assay: In vivo antibacterial efficacy, mouse pulmonary infection model
Protocol: The in vivo antibacterial efficacy of Compound 1 was evaluated in a mouse model. Mice were anesthetized and infected intranasally with a lethal amount of S. pneumoniae Stp 6301. Twelve, eighteen, and twenty-four hours after the infection, a composition containing Compound 1 or moxifloxacin (as a positive control), 0.7% lactic acid, and 3% dextrose was administered subcutaneously to the mice at a total dose of 50, 25, 12.5, or 6.25 mg/kg. Half of the treated mice were euthanized four hours after the last treatment of Compound 1 or moxifloxacin and their blood and lung tissues were collected. The number of viable bacteria in the blood and lung tissues was then determined. The lung tissues were also subjected to histopathologic evaluation. The other half of the mice were monitored for 6 days and the number of the surviving mice was recorded.

Moraxella catarrhalis = assay: In vitro antibacterial activity, agar dilution; format: cell-based; conditions: clinical isolates
Protocol: (§1) Various bacterial species, such as Gram positive bacteria (e.g., Clostridium, Staphylococcus and Streptococcus), Gram negative bacteria (e.g., Moraxella, Haemophilus, Pseudomonas, Proteus, and Bacteriodes), anaerobic and atypical pathogens, were isolated from clinical samples. The antibacterial activity of Compound of Formula I against these bacterial species were determined using agar dilution assays described in the U.S. National Committee for Clinical Laboratory, M7-A6, 2003, and M11-A5, 2001.

Clostridium difficile = assay: In vitro antibacterial activity, agar dilution; format: cell-based; conditions: anaerobic pathogen, clinical isolates
Protocol: as §1

E. coli = assay: In vitro antibacterial activity, agar dilution; format: cell-based; conditions: clinical isolates
Protocol: as §1

[1] = system: methicillin-susceptible S. aureus (MSSA); assay: In vitro antibacterial activity, agar dilution; format: cell-based
Protocol: as §1

enteric organisms = assay: In vitro antibacterial activity, agar dilution; format: cell-based; conditions: clinical isolates
Protocol: as §1

S. pneumoniae = assay: In vitro antibacterial activity, agar dilution; format: cell-based
Protocol: as §1

[2] = system: Gram positive, Gram negative, anaerobic, and atypical pathogens; assay: In vitro antibacterial activity, agar dilution; format: cell-based; conditions: clinical isolates
Protocol: as §1

Neisseria gonorrhoeae = assay: In vitro antibacterial activity, agar dilution; format: cell-based; conditions: clinical isolates
Protocol: as §1

Klebsiella pneumoniae = assay: In vitro antibacterial activity, agar dilution; format: cell-based; conditions: clinical isolates
Protocol: as §1

Proteus mirabilis = assay: In vitro antibacterial activity, agar dilution; format: cell-based; conditions: clinical isolates
Protocol: as §1

Bacteroides species = assay: In vitro antibacterial activity, agar dilution; format: cell-based; conditions: anaerobic pathogens, clinical isolates
Protocol: as §1

Haemophilus influenzae = assay: In vitro antibacterial activity, agar dilution; format: cell-based; conditions: clinical isolates
Protocol: as §1

Pseudomonas aeruginosa = assay: In vitro antibacterial activity, agar dilution; format: cell-based; conditions: clinical isolates
Protocol: as §1

MRSA = assay: In vitro antibacterial activity, agar dilution; format: cell-based, S. aureus
Protocol: as §1

[3] = 5 mg/mL in 5% dextrose
Protocol: The solution was filtered and transferred to in 100-mL polypropylene bottles. The bottles were capped, sealed, sterilized at 110° C. for 35 min, and stored at 60° C. oven. The solution in the bottles was analyzed on days 0, 5, and 10.

[4] = Effect of iron content on Compound 1 saline formulation; format: physicochemical; conditions: 5 mg/mL in 0.9% saline, filtered, sterilized
Protocol: The solution was equally divided into 2 portions. To one portion was added 0.25 g activated charcoal and to the other was added 0.25 g activated charcoal and 0.1 g of iron powder. Each of the resulting mixture was stirred and filtered to a 100-mL polypropylene bottle.

[5] = Effect of lower temperature (−15° C.) on Compound 1 saline formulation; format: physicochemical; conditions: 5 mg/mL in 0.9% saline
streptococci = assay: In vitro antibacterial activity, agar dilution; format: cell-based, Streptococcus
Protocol: as §1

[6] = Effect of pH on Compound 1 saline formulation; format: physicochemical
Protocol: 2000 mL solution of Compound 1 in 0.9% saline was prepared in the same manner as described above. The solution was equally divided into 6 portions. The pH values for the 6 portions were adjusted to 2.43, 3.00, 3.76, 4.51, 6.01 and 7.13 by adding dilute hydrochloric acid or sodium hydroxide. The appearance and content of solutions were analyzed and shown below.

[7] = Effect of temperature and time during sterilization on Compound 1 saline formulation; format: physicochemical; conditions: 0.9% saline
Protocol: To the solution was added 1.5 g of activated charcoal (0.05% g/mL). The mixture was stirred for 15 min and filtered. The filtrate was added to a serious of 100-mL polypropylene bottles. The filled bottles were capped, sealed, and divided into four groups (7 bottles/group).

staphylococci = assay: In vitro antibacterial activity, agar dilution; format: cell-based, Staphylococcus
Protocol: as §1

[8] = for Appearance: 5 mg/mL (free base) in 0.9% saline, light box 4500Lx+/−500Lx; for UV Absorption: compared with Standard; for UV Absorption / pH Value: intense light 4500Lx+/−500Lx
[9] = Effect of pH on Compound 1 saline formulation; format: physicochemical; conditions: 5 mg/mL in 0.9% saline
[10] = Long-term and accelerated storage stability of Compound 1 saline formulation; format: physicochemical; conditions: 5 mg/mL (free base) in 0.9% saline
Protocol: At each sampling point (marked as “X” in the above table), samples were evaluated for their appearance, color, clarity, pH, UV absorption, assay and impurity.

[11] = Effect of activated charcoal on Compound 1 saline formulation; conditions: 5 mg/mL in 0.9% NaCl
[12] = 5 mg/mL in 0.9% saline
Protocol: The solution was filtered and transferred to 100-mL polypropylene bottles. The bottles were capped, sealed, sterilized at 110° C. for 35 min, and stored at 60° C. oven. The solution in the bottles was analyzed on days 0, 5, and 10.

[13] = 0 day, after sterilization (110° C., 35 min)
[14] = activated charcoal and iron powder added
[15] = activated charcoal, no iron powder
[16] = 5 mg/mL in 0.9% saline, pH 3.00
[17] = 5 mg/mL in 0.9% saline, pH 3.76 (no acid/base added)
[18] = 5 mg/mL in 0.9% saline, pH 6.01
[19] = sterile temperature N/A (control group)
[20] = activated charcoal added 0.02% (g/mL)
[21] = activated charcoal added 0.05% (g/mL)
[22] = activated charcoal added 0.5% (g/mL)

COc1c(N2C[C@@H](C)C[C@H](N)C2)ccc2c(=O)c(C(=O)O)cn(C3CC3)c12 [Compound 1, (3S,5S)-7-[3-amino-5-methyl-piperidinyl]-1-cyclopropyl-1,4-dihydro-8-methoxy-4-oxo-3-quinolinecarboxylic acid]
survival (S. pneumoniae Stp 6301; lethal intranasal infection, s.c. total dose 50, 25, 12.5 or 6.25 mg/kg (all tested levels), monitored 6 days): 100% | viable bacteria in lung and blood (S. pneumoniae Stp 6301; mice infected intranasally, s.c. 12, 18, 24 h after infection, total dose 50, 25, 12.5 or 6.25 mg/kg (all levels), 4 h after last treatment, vs vehicle-treated controls): significantly reduced | efficacy compared with moxifloxacin (S. pneumoniae Stp 6301; same dosage levels, pulmonary infection model): more efficacious than moxifloxacin | MIC90 (Moraxella catarrhalis): 0.03 µg/mL (≈ 0.0808 µM) | antibacterial activity (in words) (Clostridium difficile): active | MIC90 (E. coli): 0.12 µg/mL (≈ 0.323 µM) | MIC90 ([1]; ciprofloxacin-resistant MSSA clinical isolates): 0.5 µg/mL (≈ 1.35 µM) | MIC90 ([1]; ciprofloxacin-sensitive MSSA clinical isolates): 0.06 µg/mL (≈ 0.162 µM) | antibacterial activity (in words) (enteric organisms): active against most enteric organisms | MIC90 (S. pneumoniae; macrolide-resistant S. pneumoniae isolates): 0.12 µg/mL (≈ 0.323 µM) | MIC90 (S. pneumoniae; penicillin-resistant S. pneumoniae isolates): 0.12 µg/mL (≈ 0.323 µM) | MIC90 (S. pneumoniae; susceptible S. pneumoniae isolates): 0.12 µg/mL (≈ 0.323 µM) | antibacterial activity (in words) [2]: potent, broad-spectrum antibacterial activity | MIC90 (Neisseria gonorrhoeae): 0.06 µg/mL (≈ 0.162 µM) | MIC90 (Klebsiella pneumoniae): 1 µg/mL (≈ 2.69 µM) | MIC90 (Proteus mirabilis): 0.5 µg/mL (≈ 1.35 µM) | antibacterial activity (in words) (Bacteroides species): active | MIC90 (Haemophilus influenzae): 0.12 µg/mL (≈ 0.323 µM) | antibacterial activity (in words) (Pseudomonas aeruginosa): active against many isolates | MIC90 (MRSA; ciprofloxacin-resistant MRSA clinical isolates): 1 µg/mL (≈ 2.69 µM) | MIC90 (MRSA; ciprofloxacin-sensitive MRSA clinical isolates): 0.06 µg/mL (≈ 0.162 µM) | Appearance [3, 13]: Clear yellow | Comparative content of Compound 1 (%) [3, 13]: 97.8% | pH [3, 13]: 3.88 | Appearance ([3]; 0 day, before sterilization): Clear yellow | Comparative content of Compound 1 (%) ([3]; 0 day, before sterilization): 100.4% | pH ([3]; 0 day, before sterilization): 3.89 | Appearance ([3]; 5 days at 60° C.): Dark yellow | Comparative content of Compound 1 (%) ([3]; 5 days at 60° C.): 96.0% | pH ([3]; 5 days at 60° C.): 4.03 | Appearance ([3]; 10 days at 60° C.): Brown | Comparative content of Compound 1 (%) ([3]; 10 days at 60° C.): 94.2% | pH ([3]; 10 days at 60° C.): 4.08 | Appearance [4, 14]: Reddish Brown | pH [4, 14]: 3.77 | Appearance [4, 15]: Light yellow | pH [4, 15]: 3.78 | Appearance ([5]; 0 day at −15° C.): Clear yellow | Content ([5]; 0 day at −15° C.): 102.6 | Total Impurity (%) ([5]; 0 day at −15° C.): 0.378% | pH Value ([5]; 0 day at −15° C.): 3.90 | Appearance ([5]; 5 days at −15° C.): Clear yellow | Content ([5]; 5 days at −15° C.): 102.8 | Total Impurity (%) ([5]; 5 days at −15° C.): 0.370% | pH Value ([5]; 5 days at −15° C.): 3.89 | Appearance ([5]; 10 days at −15° C.): Clear yellow | Content ([5]; 10 days at −15° C.): 103.5 | Total Impurity (%) ([5]; 10 days at −15° C.): 0.373% | pH Value ([5]; 10 days at −15° C.): 3.89 | Appearance, compound content, pH and total impurity (summary in words) ([5]; −15° C. for 10 days): maintained the same | MIC values (streptococci; all streptococci in this study): < 1 µg/mL | antibacterial activity (in words) (streptococci; including multi-resistant S. pneumoniae): especially active | pH Value ([6]; 5 mg/mL in 0.9% saline, no acid/base added): 3.76 | Appearance [6, 16]: clear yellow solution | Comparative content of Compound 1 (%) [6, 16]: 94.87% | Appearance [6, 17]: clear yellow solution | Comparative content of Compound 1 (%) [6, 17]: 103.62% | Appearance [6, 18]: clear yellow solution | Comparative content of Compound 1 (%) [6, 18]: 99.63% | pH at which Compound 1 precipitated ([6]; 5 mg/mL in a saline solution): 6.6 | Content (%) [7, 19]: 95.20% | Total Impurity (%) [7, 19]: 0.167% | pH Value [7, 19]: 3.86 | Content (%) ([7]; sterilization 105° C./35 min): 96.44% | Total Impurity (%) ([7]; sterilization 105° C./35 min): 0.198% | pH Value ([7]; sterilization 105° C./35 min): 3.86 | Content (%) ([7]; sterilization 110° C./35 min): 95.86% | Total Impurity (%) ([7]; sterilization 110° C./35 min): 0.240% | pH Value ([7]; sterilization 110° C./35 min): 3.86 | Content (%) ([7]; sterilization 115° C./35 min): 95.98% | Total Impurity (%) ([7]; sterilization 115° C./35 min): 0.509% | pH Value ([7]; sterilization 115° C./35 min): 3.85 | MIC values (staphylococci; all staphylococci in this study): < 2 µg/mL | antibacterial activity (in words) (staphylococci; including methicillin-resistant S. aureus (MRSA)): especially active | Appearance ([8]; 0 day): Clear yellow | Appearance ([8]; 5 days): Clear yellow | Appearance ([8]; 10 days): Clear yellow | UV Absorption ([8]; 0 day): Consist with | UV Absorption ([8]; 5 days): Consist with | UV Absorption ([8]; 10 days): Consist with | pH Value ([8]; 0 day): 3.90 | pH Value ([8]; 5 days): 3.89 | pH Value ([8]; 10 days): 3.89 | Appearance ([9]; pH 2.17): clear yellow solution | Comparative content of Compound 1 (%) ([9]; pH 2.17): 96.68% | Appearance ([9]; pH 4.50): clear yellow solution | Comparative content of Compound 1 (%) ([9]; pH 4.50): 101.14% | Appearance ([9]; pH 6.60): White precipitate | Changes in appearance, color, clarity, pH, UV absorption, assay and impurity ([10]; 25° C., 60% RH, 12 months): No significant changes | Changes in appearance, color, clarity, pH, UV absorption, assay and impurity ([10]; 40° C., 20% RH, 6 months): No significant changes | Comparative content of Compound 1 (%) ([11]; activated charcoal added 0): 109.0% | pH Value ([11]; activated charcoal added 0, boiled 25 min, filtered, sterilized): 3.96 | Comparative content of Compound 1 (%) [11, 20]: 108.8% | pH Value [11, 20]: 3.88 | Comparative content of Compound 1 (%) [11, 21]: 109.2% | pH Value [11, 21]: 3.88 | Comparative content of Compound 1 (%) [11, 22]: 63.9% | pH Value [11, 22]: 3.80 | Appearance ([12]; sterilized, 0 day): Clear yellow | Comparative content of Compound 1 (%) ([12]; sterilized, 0 day): 102.6% | Total Impurity (%) ([12]; sterilized, 0 day): 0.378% | pH Value ([12]; sterilized, 0 day): 3.90 | Appearance ([12]; 5 days at 60° C.): Clear yellow | Comparative content of Compound 1 (%) ([12]; 5 days at 60° C.): 103.2% | Total Impurity (%) ([12]; 5 days at 60° C.): 0.375% | pH Value ([12]; 5 days at 60° C.): 3.88 | Appearance ([12]; 10 days at 60° C.): Clear yellow | Comparative content of Compound 1 (%) ([12]; 10 days at 60° C.): 104.0% | Total Impurity (%) ([12]; 10 days at 60° C.): 0.410% | pH Value ([12]; 10 days at 60° C.): 3.88
